Several values for one entry are separate records, joined by “and”; a condition that tells them apart may be missing. Identical values can stand only once.
How the values were obtained:
Type in all cases: ADME, organism-based
Homo sapiens [1] = assay: Evaluation of pharmacokinetic parameters for 14 OH-Clarithromycin following multiple oral doses of Clarithromycin tablets.; design: dose 250 mg, dose 500 mg, dose 1000 mg, route oral; conditions: in vivo, dosed compound id 21, dosed compound name CLARITHROMYCIN, tissue Plasma
[2] = (§1) Tmax for Clarithromycin evaluated after a single oral dose of 500 mg Clarithromycin tablets to fed and fasted subjects; conditions: human, in vivo, dietary status Fed, dosed compound id 21, dosed compound name CLARITHROMYCIN, regimen Single dose, tissue Plasma
Homo sapiens [3] = assay: as §1; conditions: in vivo, po, dietary status Fasting, dosed compound id 21, dosed compound name CLARITHROMYCIN, regimen Single dose, tissue Plasma
[4] = (§2) Evaluation of pharmacokinetic parameters for Clarithromycin following multiple oral doses of Clarithromycin tablets.; design: dose 250 mg, dose 500 mg, dose 1000 mg, route oral; conditions: human, in vivo, dosed compound id 21, dosed compound name CLARITHROMYCIN, route oral
Homo sapiens [5] = assay: as §2; design: dose 250 mg, dose 500 mg, dose 1000 mg, route oral; conditions: in vivo, po, dosed compound id 21, dosed compound name CLARITHROMYCIN, regimen Every 12h; for Excretion: tissue Urine

t1/2 (Homo sapiens [1]; dose 250 mg, regimen Every 12h, route oral) | Tmax (Homo sapiens [1]; dose 500 mg, gender male and female, regimen Every 24h, route oral) | t1/2 (Homo sapiens [1]; dose 500 mg, regimen Every 12h, route oral) | Cmax ss (Homo sapiens [1]; gender male and female, regimen Every 24h) | Cmax ss (Homo sapiens [1]; regimen Every 12h) | Tmax [2] | Tmax (Homo sapiens [3]) | dose excreted ([4]; po, at 250 mg, regimen Every 12h, tissue Urine, read-out: Excretion) | Tmax ([4]; dose 500 mg, gender male and female, regimen Every 24h, tissue Plasma) | half-life ([4]; dose 500 mg, regimen Every 12h, tissue Plasma) | Excretion (Homo sapiens [5]; at 250 mg) | Excretion (Homo sapiens [5]; at 500 mg) | t1/2 (Homo sapiens [5]; dose 250 mg, tissue Plasma) | Cmax ss (Homo sapiens [5]; gender male and female, tissue Plasma) | Cmax ss (Homo sapiens [5]; sampling time1 3 days, tissue Plasma) | SMILES
5 to 6 h | 6 h | 7 to 9 h | 0.8 µg/mL | 0.6 µg/mL and 1 µg/mL |  |  |  |  |  |  |  |  |  |  | CO[C@]1(C)C[C@@H](C)C(=O)[C@H](C)[C@@H](O)[C@](C)(O)[C@@H](C(C)O)OC(=O)[C@H](C)[C@@H](O[C@H]2C[C@@](C)(OC)[C@@H](O)[C@H](C)O2)[C@H](C)[C@H]1O[C@@H]1O[C@H](C)C[C@H](N(C)C)[C@H]1O (stereo not given in full)
 |  |  |  |  | 2.5 h | 2 h | 40% | 5 to 6 h | 300 to 420 min | 20% | 30% | 3 to 4 h | 2 to 4 µg/mL and 5 to 10 µg/mL | 1 to 2 µg/mL and 3 to 4 µg/mL | CC[C@H]1OC(=O)[C@H](C)[C@@H](O[C@H]2C[C@@](C)(OC)[C@@H](O)[C@H](C)O2)[C@H](C)[C@@H](O[C@@H]2O[C@H](C)C[C@H](N(C)C)[C@H]2O)[C@](C)(OC)C[C@@H](C)C(=O)[C@H](C)[C@@H](O)[C@]1(C)O [CLARITHROMYCIN]

Source: ChEMBL document CHEMBL3832024, “DailyMed|setid=d9db2fd3-a668-4d37-9082-18f6ceb8c3cb | CLARITHROMYCIN - clarithromycin tablet, film coated, extended release|Dispensing Solutions, Inc”
